Measured values from EP0938474B1, “CYCLOPROPYLINDOLE COMPOUNDS AND THEIR USE AS PRODRUGS” (AUCKLAND UNISERVICES LIMITED, priority 1996, dated 1998).

Columns and labels:
WC14.10 = experiment: Cytotoxicity in cells transfected with bacterial nitroreductase (NR+); format: cell-based; settings: Homo sapiens; WC14.10 (NR+ transfected counterpart of WIDR); IC50, unit inferred; read-out: Human colon lines NR+
Source text: (§1) Compounds of the invention were further tested against human cell lines (NR+ in Table 3) transfected with a gene encoding a bacterial nitroreductase (NR) enzyme to test for activation of compounds of the invention with NR. Untransfected control cells (NR- in Table 3) were used as controls. The cells used were the human colon NR-(wild-type) line WIDR and its transfected NR+ counterpart WC14.10; and the human ovarian NR- (wild-type) line SKOV3 together with its NR+ (transfected) counterpart SC3.2. The results are shown in Table 3, which also indicates the ratios of IC50s. These are intra-experiment values, and may differ slightly from those calculated from the given NR- and NR+ values.

SC3.2 = experiment: as above; format: cell-based; settings: Homo sapiens, SK-OV-3; SC3.2 (NR+ transfected counterpart of SKOV3); IC50, unit inferred; read-out: Human ovarian lines NR+
Source text: as §1

[1] = test system: human ovarian NR- (wild-type) line SKOV3; experiment: Cytotoxicity in untransfected control cells (NR-), nitroreductase activation test; format: cell-based; settings: SK-OV-3, IC50, unit inferred, read-out: Human ovarian lines NR-
Source text: as §1

[2] = test system: human colon NR-(wild-type) line WIDR; experiment: as above; format: cell-based; settings: IC50, unit inferred, read-out: Human colon lines NR-
Source text: as §1

UV4 = experiment: Cytotoxicity (growth inhibition), 4 h drug exposure, methylene blue staining; format: cell-based, rodent; settings: Cricetulus griseus; UV4 mutant AA8 line defective in excision repair; 4 hours exposure, then three days incubation
Experimental: (§2) Compounds of the invention were tested for cytotoxicity against four different cell lines, all of which are widely available in the art. AA8 is a wild type rodent cell line. UV4 is a mutant AA8 cell line defective in excision repair, and hypersensitive to many alkylating agents. EMT6 is a widely-used rodent line. SKOV is a human ovarian cell line.
(§3) Cell culture assays were performed in 96-well microtitre trays. Compounds of the invention were added in culture medium, using serial two-fold dilutions to provide duplicate cultures at five different concentrations for each of eight drugs (plus eight controls) per tray. Drugs were dissolved in water or DMSO immediately prior to addition to the cell culture. After 4 hours, drugs were removed by washing cultures three times with fresh medium, and the trays were incubated for a futher three days. Cell density was then determined by staining with methylene blue as described previously (Finlay, G. J., et al, Anal. Biochm. 1984, 139, 272-277) and the IC50 was calculated as the drug concentration providing 50% inhibition of growth relative to the controls.

EMT6 = experiment: as above; format: cell-based; settings: Mus musculus; EMT6 rodent line; 4 hours exposure, then three days incubation
Experimental: as §2, §3

AA8 = experiment: as above; format: cell-based; settings: Cricetulus griseus, CHO-AA8; AA8 wild type rodent cell line; 4 hours exposure, then three days incubation
Experimental: as §2, §3

SKOV3 = experiment: as above; format: cell-based; settings: SK-OV-3; human ovarian cell line; 4 hours exposure, then three days incubation
Experimental: as §2, §3

COc1cc2cc(C(=O)N3CC(CCl)c4c3cc([N+](=O)[O-])c3ccccc43)[nH]c2c(OC)c1OC (racemic) [14a]
IC50 (WC14.10): 380 nM
IC50 (SC3.2): 140 nM
IC50 [1]: 1600 nM
IC50 [2]: 1300 nM

COc1cc2cc(C(=O)N3C[C@H](CCl)c4c3cc([N+](=O)[O-])c3ccccc43)[nH]c2c(OC)c1OC [14aR]
IC50 (WC14.10): > 20000 nM
IC50 (SC3.2): 300 nM
IC50 [1]: > 20000 nM
IC50 [2]: > 20000 nM

COc1cc2cc(C(=O)N3C[C@@H](CCl)c4c3cc([N+](=O)[O-])c3ccccc43)[nH]c2c(OC)c1OC [14aS]
IC50 (WC14.10): 90 nM
IC50 (SC3.2): 40 nM
IC50 [1]: 400 nM
IC50 [2]: 350 nM

O=C(c1cc2cc([N+](=O)[O-])ccc2[nH]1)N1CC(CCl)c2c1cc([N+](=O)[O-])c1ccccc21 (stereo not drawn) [14b, 1-(chloromethyl)-5-nitro-3-[(5-nitroindol-2-yl)carbonyl]-1,2-dihydro-3H-benz[e]indole]
IC50 (WC14.10): 210 nM
IC50 (SC3.2): 390 nM
IC50 [1]: 400 nM
IC50 [2]: 390 nM

CC(=O)Nc1ccc2[nH]c(C(=O)N3CC(CCl)c4c3cc([N+](=O)[O-])c3ccccc43)cc2c1 (stereo not drawn) [14c, 3-[[5-(acetylamino)indol-2-yl]carbonyl]-1-(chloromethyl)-5-nitro-1,2-dihydro-3H-benz[e]indole]
IC50 (WC14.10): 360 nM
IC50 (SC3.2): 250 nM
IC50 [1]: 4300 nM
IC50 [2]: 1600 nM

COc1ccc2[nH]c(C(=O)N3CC(CCl)c4c3cc([N+](=O)[O-])c3ccccc43)cc2c1 (stereo not drawn) [14d, 1-(chloromethyl)-3-[(5-methoxyindol-2-yl)carbonyl]-5-nitro-1,2-dihydro-3H-benz[e]indole]
IC50 (WC14.10): 290 nM
IC50 (SC3.2): 150 nM
IC50 [1]: 580 nM
IC50 [2]: 740 nM

CN(C)CCOc1ccc2[nH]c(C(=O)N3CC(CCl)c4c3cc([N+](=O)[O-])c3ccccc43)cc2c1 (stereo not drawn) [14e, 1-(chloromethyl)-3-[[5-[2-(dimethylamino)-ethoxy]indol-2-yl]carbonyl] -5-nitro-1,2-dihydro-3H-benz [e] indole]
IC50 (WC14.10): 130 nM
IC50 (SC3.2): 90 nM
IC50 [1]: 1000 nM
IC50 [2]: 370 nM

CCCC(=O)Nc1cc(/C=C/C(=O)N2CC(CCl)c3c2cc([N+](=O)[O-])c2ccccc32)n(C)c1 (stereo not drawn) [14i, 3-[(E)-4-(butyrylamino)-1-methyl-2-pyrroleacryloyl]-1-(chloromethyl)-5-nitro-1,2-dihydro-3H-benz [e] indole]
IC50 (WC14.10): 600 nM
IC50 (SC3.2): 390 nM
IC50 [1]: 4300 nM
IC50 [2]: 2200 nM

COc1cccc(/C=C/C(=O)N2CC(CCl)c3c2cc([N+](=O)[O-])c2ccccc32)c1 (stereo not drawn) [14l, 1-(chloromethyl)-3-[(E)-3-methoxycinnamoyl]-5-nitro-1,2-dihydro-3H-benz[e]iadole]
IC50 (WC14.10): 80 nM
IC50 (SC3.2): 40 nM
IC50 [1]: 130 nM
IC50 [2]: 140 nM

COc1cc2cc(C(=O)N3CC(COS(C)(=O)=O)c4c3cc([N+](=O)[O-])c3ccccc43)[nH]c2c(OC)c1OC (stereo not drawn) [14o, 1-[(methanesulfonyloxy)methyl]-5-nitro-3-[(5,6,7-trimethoxyindol-2-yl)carbonyl]-1,2-dihydro-3H-benz[e]indole]
IC50 (WC14.10): 60 nM
IC50 (SC3.2): 50 nM
IC50 [1]: 410 nM
IC50 [2]: 410 nM

COc1cc2cc(C(=O)N3CC(CCl)c4c3cc(N)c3ccccc43)[nH]c2c(OC)c1OC (stereo not drawn) [15a, 5-amino-1-(chloromethyl)-3-[(5,6,7-trimethoxyindol-2-yl)carbonyl]-1,2-dihydro-3H-benz [e] indole]
IC50 (UV4): 0.28 nM
IC50 (EMT6): 0.27 nM
IC50 (AA8): 0.45 nM
IC50 (SKOV3): 1 nM

COc1cc2cc(C(=O)N3C[C@H](CCl)c4c3cc(N)c3ccccc43)[nH]c2c(OC)c1OC [15aR, (R)-5-amino-1-(chloromethyl)-3-[(5,6,7-trimethoxyindol-,2-yl)carbonyl]-1,2-dihydro-3H-benz[e]indole]
IC50 (UV4): 2.6 nM
IC50 (EMT6): 7 nM
IC50 (AA8): 13.6 nM
IC50 (SKOV3): 7.8 nM

COc1cc2cc(C(=O)N3C[C@@H](CCl)c4c3cc(N)c3ccccc43)[nH]c2c(OC)c1OC [15aS, (S)-5-amino-1-(chloromethyl)-3-[(5,6,7-trimethoxyindol-2-yl)carbonyl]-1,2-dihydro-3H-benz[e]indole]
IC50 (UV4): 0.1 nM
IC50 (EMT6): 0.1 nM
IC50 (AA8): 0.2 nM
IC50 (SKOV3): 0.5 nM

Nc1ccc2[nH]c(C(=O)N3CC(CCl)c4c3cc(N)c3ccccc43)cc2c1 (stereo not drawn) [15b, 5-amino-3-[(5-aminoindol-2-yl)carbonyl]-1-(chloromethyl)-1,2-dihydro-3H-benz [e] indole]
IC50 (UV4): 1 nM
IC50 (EMT6): 0.8 nM
IC50 (AA8): 2.4 nM
IC50 (SKOV3): 3 nM

CC(=O)Nc1ccc2[nH]c(C(=O)N3CC(CCl)c4c3cc(N)c3ccccc43)cc2c1 (stereo not drawn) [15c, 3-[[5-(acetylamino)indol-2-yl]carbonyl]-5-amino-1-(chloromethyl)-1,2-dihydro-3H-benz[e]indole]
IC50 (UV4): 7.6 nM
IC50 (EMT6): 5.2 nM
IC50 (AA8): 12.5 nM
IC50 (SKOV3): 18 nM

COc1ccc2[nH]c(C(=O)N3CC(CCl)c4c3cc(N)c3ccccc43)cc2c1 (stereo not drawn) [15d, 5-amino-1-(chloromethyl)-3-[(5-methoxyindol-2-yl)carbonyl]-1,2-dihydro-3H-benz[e] indole]
IC50 (UV4): 0.8 nM
IC50 (EMT6): 0.9 nM
IC50 (AA8): 1.2 nM
IC50 (SKOV3): 1.8 nM

CN(C)CCOc1ccc2[nH]c(C(=O)N3CC(CCl)c4c3cc(N)c3ccccc43)cc2c1 (stereo not drawn) [15e, 5-amino-1-(chloromethyl)-3-[[5-[2-(dimethylamino)ethoxy]indol-2-yl]carbonyl]-1,2-dihydro-3H-benz [e] indole]
IC50 (UV4): 1.4 nM
IC50 (EMT6): 0.9 nM
IC50 (AA8): 3.5 nM
IC50 (SKOV3): 6.4 nM

CCCC(=O)Nc1cc(/C=C/C(=O)N2CC(CCl)c3c2cc(N)c2ccccc32)n(C)c1 (stereo not drawn) [15i]
IC50 (UV4): 16 nM
IC50 (EMT6): 5.9 nM
IC50 (AA8): 31 nM
IC50 (SKOV3): 22 nM

COc1cccc(/C=C/C(=O)N2CC(CCl)c3c2cc(N)c2ccccc32)c1 (stereo not drawn) [15l, 5-amino-1-(chloromethyl)-3-[(E)-3-methoxycinnamoyl]-1,2-dihydro-3H-benz[e]indole]
IC50 (UV4): 0.4 nM
IC50 (EMT6): 0.2 nM
IC50 (AA8): 0.3 nM
IC50 (SKOV3): 0.6 nM

COc1cc2cc(C(=O)N3CC(COS(C)(=O)=O)c4c3cc(N)c3ccccc43)[nH]c2c(OC)c1OC (stereo not drawn) [15o, 5-amino-1-[(methanesulfonyloxy)methyl]-3-[(5,6,7-trimethoxyindol-2-yl)carbonyl]-1,2-dihydro-3H-benz[e]indole]
IC50 (EMT6): 233 nM
IC50 (AA8): 660 nM
IC50 (SKOV3): 1330 nM

CNc1cc2c(c3ccccc13)C(CCl)CN2C(=O)c1cc2cc(OC)c(OC)c(OC)c2[nH]1 (stereo not drawn) [15p, 1-(chloromethyl)-5-methylamino-3-[(5,6,7-trimethoxyindol-2-yl)carbonyl]-1,2-dihydro-3H-benz[e]indole]
IC50 (UV4): 0.1 nM
IC50 (EMT6): 0.1 nM
IC50 (AA8): 0.1 nM
IC50 (SKOV3): 0.3 nM

COc1cc2cc(C(=O)N3CC(CCl)c4c3cc(N(C)C)c3ccccc43)[nH]c2c(OC)c1OC (stereo not drawn) [15q, 1-(chloromethyl)-5-dimethylamino-3-[(5,6,7-trimethoxy-indol-2-yl)carbonyl]-1,2-dihydro-3H-benz [e] indole]
IC50 (UV4): 3.7 nM
IC50 (EMT6): 3.8 nM
IC50 (AA8): 5.6 nM
IC50 (SKOV3): 16 nM

COC(=O)c1cc2c3c(cc(N)c2[nH]1)N(C(=O)c1cc2cc(OC)c(OC)c(OC)c2[nH]1)CC3CCl (stereo not drawn) [32a, methyl 5-amino-1-(chloromethyl)-3-[(5,6,7-trimethoxyindol-2-yl)carbonyl]-1,2-dihydro-3H-pyrrolo[3,2-e]indole-7-carboxylate]
IC50 (UV4): 1.7 nM
IC50 (EMT6): 5.6 nM
IC50 (AA8): 17 nM
IC50 (SKOV3): 14 nM

CNc1cc2c(c3cc(C(=O)OC)[nH]c13)C(CCl)CN2C(=O)c1cc2cc(OC)c(OC)c(OC)c2[nH]1 (stereo not drawn) [32b, methyl 1-(chloromethyl)-5-methylamino-3-[(5,6,7-trimethoxyindol-2-yl)carbanyl]-1,2-dihydro-3H-pyrrolo[3,2-e]indole-7-carboxylate]
IC50 (UV4): 0.7 nM
IC50 (EMT6): 0.8 nM
IC50 (AA8): 2.4 nM
IC50 (SKOV3): 1.9 nM

COC(=O)c1cc2c3c(cc(N(C)C)c2[nH]1)N(C(=O)c1cc2cc(OC)c(OC)c(OC)c2[nH]1)CC3CCl (stereo not drawn) [32c, methyl 1-(chloromethyl)-5-dimethylamino-3-[(5,6,7-trimethoxyindol-2-yl)carbonyl]-1,2-dihydro-3H-pyrrolo[3,2-e]indole-7-carboxylate]
IC50 (UV4): 3.3 nM
IC50 (EMT6): 5.2 nM
IC50 (AA8): 12 nM
IC50 (SKOV3): 12 nM
